# From patent US20070218486A1, “Immunoassays, Haptens, Immunogens and Antibodies for Anti-HIV Therapeutics” (Ark Diagnostics, Inc., priority 2006, published 2007)
# Where a name gives a salt, the structure may show the parent alone. Read-outs that look alike come from different tables or passages of the source.
# Tests used:
# Anti-(H12)2 = test: Specificity of the immunoassay (cross-reactivity in human serum); assay type: binding, rabbit; conditions: 10 μg/mL of crossreactant plus 5 μg/mL of tipranavir in human serum
# Description: Also antibody Anti-(H12)2 was used in this Example as part of an antibody reagent (“Anti-(H12)2 Antibody Reagent”) further comprising nicotinamide adenine dinucleotide, glucose-6-phosphate, sodium chloride, bulking agent, surfactant, and preservatives.
# An immunoassay for tipranavir was conducted on the Cobas Mira Chemistry Analyzer (Roche). On the analyzer, 4 μL of sample plus 61 μL water were incubated for 300 sec with 150 μL of Anti-(H12)2 Antibody Reagent. […] After 25 sec incubation, enzyme activity was monitored by following the production of NADH spectrophotometrically at 340 nm for 50 sec.
# Testing was performed on the Cobas Mira analyzer. The percentage concentration above 5 μg/mL of tipranavir was calculated for each crossreactant.
# primary hepatocyte [1] = conditions: rat; cited from earlier work
# primary hepatocyte [2] = conditions: dog; cited from earlier work
# primary hepatocyte [3] = conditions: human; cited from earlier work
# [4] = rats; cited from earlier work
# [5] = dogs; cited from earlier work
# [6] = cited from earlier work
# CYP450 enzymes = conditions: in vitro; cited from earlier work
# [7] = cited from earlier work; remark: listed apart in the source
# [8] = molecular target: T1, mammalian DNA polymerases α (Homo sapiens, UniProt P09884); conditions: cited from earlier work
# T1 sequence (P09884 1-1462): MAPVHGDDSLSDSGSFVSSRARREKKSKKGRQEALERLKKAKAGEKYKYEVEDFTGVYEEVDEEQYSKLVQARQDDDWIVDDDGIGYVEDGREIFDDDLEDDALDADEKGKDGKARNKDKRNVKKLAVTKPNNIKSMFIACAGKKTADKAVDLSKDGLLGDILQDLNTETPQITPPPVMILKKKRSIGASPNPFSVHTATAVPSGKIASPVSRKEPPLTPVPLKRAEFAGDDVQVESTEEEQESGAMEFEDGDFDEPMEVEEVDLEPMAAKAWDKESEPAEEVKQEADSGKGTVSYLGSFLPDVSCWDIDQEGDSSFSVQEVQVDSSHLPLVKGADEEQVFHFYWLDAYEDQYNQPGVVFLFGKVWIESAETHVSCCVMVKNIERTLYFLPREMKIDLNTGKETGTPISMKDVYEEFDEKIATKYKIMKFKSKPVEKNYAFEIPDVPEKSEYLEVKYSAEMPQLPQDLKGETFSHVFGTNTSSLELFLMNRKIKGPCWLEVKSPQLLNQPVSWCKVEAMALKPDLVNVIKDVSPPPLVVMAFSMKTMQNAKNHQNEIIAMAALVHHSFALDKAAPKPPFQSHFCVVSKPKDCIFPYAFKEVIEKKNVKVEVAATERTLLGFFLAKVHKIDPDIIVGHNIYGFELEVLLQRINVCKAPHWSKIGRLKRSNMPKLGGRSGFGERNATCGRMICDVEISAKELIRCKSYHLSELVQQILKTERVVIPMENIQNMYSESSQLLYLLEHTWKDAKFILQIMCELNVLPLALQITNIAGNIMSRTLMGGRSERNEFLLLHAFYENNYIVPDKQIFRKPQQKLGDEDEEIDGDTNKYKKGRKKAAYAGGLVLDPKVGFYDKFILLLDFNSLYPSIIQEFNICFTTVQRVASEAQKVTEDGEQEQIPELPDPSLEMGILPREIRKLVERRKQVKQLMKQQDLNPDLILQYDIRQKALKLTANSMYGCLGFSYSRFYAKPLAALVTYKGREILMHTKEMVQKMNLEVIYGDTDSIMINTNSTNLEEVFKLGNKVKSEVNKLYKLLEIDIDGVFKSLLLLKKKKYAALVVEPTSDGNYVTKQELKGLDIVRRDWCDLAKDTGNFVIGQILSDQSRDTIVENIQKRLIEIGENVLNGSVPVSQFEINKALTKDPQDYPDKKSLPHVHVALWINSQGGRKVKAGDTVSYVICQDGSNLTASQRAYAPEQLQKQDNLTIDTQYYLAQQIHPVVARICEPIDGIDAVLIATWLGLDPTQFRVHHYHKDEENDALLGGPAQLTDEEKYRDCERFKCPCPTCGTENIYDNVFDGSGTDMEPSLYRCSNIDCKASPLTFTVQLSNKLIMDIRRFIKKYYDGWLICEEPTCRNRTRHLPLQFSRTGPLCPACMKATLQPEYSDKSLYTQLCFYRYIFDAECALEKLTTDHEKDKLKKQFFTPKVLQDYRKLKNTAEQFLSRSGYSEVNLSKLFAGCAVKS
# [9] = molecular target: mammalian DNA polymerases β (Homo sapiens, UniProt P06746); conditions: cited from earlier work
# [10] = molecular target: T2, mitochondrial DNA polymerase γ (Homo sapiens, UniProt P54098); conditions: cited from earlier work
# T2 sequence (P54098 1-1239): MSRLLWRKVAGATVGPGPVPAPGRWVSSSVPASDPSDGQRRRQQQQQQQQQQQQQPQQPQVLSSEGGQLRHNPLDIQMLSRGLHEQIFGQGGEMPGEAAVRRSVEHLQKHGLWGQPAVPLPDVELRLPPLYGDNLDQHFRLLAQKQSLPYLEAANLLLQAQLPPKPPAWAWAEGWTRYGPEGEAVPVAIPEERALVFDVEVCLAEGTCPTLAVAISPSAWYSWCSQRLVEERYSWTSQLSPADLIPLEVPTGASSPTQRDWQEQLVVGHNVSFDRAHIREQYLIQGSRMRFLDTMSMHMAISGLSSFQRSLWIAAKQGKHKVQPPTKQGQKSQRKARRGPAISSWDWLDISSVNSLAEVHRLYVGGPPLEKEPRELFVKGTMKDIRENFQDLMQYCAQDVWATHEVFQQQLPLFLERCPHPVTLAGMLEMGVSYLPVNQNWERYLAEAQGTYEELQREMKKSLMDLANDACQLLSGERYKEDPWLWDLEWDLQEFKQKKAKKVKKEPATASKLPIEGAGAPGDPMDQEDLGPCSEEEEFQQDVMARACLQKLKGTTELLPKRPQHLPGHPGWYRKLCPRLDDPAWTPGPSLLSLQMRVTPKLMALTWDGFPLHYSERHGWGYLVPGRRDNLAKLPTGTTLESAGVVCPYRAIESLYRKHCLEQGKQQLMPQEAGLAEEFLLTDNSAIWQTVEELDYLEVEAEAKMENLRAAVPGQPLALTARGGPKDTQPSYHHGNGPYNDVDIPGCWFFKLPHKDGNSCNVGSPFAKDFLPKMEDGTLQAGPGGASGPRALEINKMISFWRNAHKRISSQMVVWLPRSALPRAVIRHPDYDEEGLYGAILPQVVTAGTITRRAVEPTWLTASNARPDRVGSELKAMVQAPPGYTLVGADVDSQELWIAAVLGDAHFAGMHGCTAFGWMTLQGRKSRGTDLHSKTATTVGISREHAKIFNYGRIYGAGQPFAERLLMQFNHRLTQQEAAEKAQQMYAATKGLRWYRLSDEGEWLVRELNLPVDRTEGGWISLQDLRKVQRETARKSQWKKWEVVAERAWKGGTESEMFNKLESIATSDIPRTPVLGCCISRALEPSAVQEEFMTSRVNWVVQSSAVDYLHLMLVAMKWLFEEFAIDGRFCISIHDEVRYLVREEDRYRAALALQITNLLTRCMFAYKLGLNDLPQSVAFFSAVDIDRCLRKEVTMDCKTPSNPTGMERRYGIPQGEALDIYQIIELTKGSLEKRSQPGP
compound,measurement,setting,value
Cc1c(O)cccc1C(=O)N[C@@H](CSc1ccccc1)[C@H](O)CN1C[C@H]2CCCC[C@H]2C[C@H]1C(=O)NC(C)(C)C [Nelfinavir],Percent Increase in Apparent Tipranavir,Anti-(H12)2,0%
CCC[C@@]1(CCc2ccccc2)CC(O)=C([C@H](CC)c2cccc(NS(=O)(=O)c3ccc(C(F)(F)F)cn3)c2)C(=O)O1 [Tipranavir],stability in primary hepatocyte incubations,primary hepatocyte [1],stable
same,stability in primary hepatocyte incubations,primary hepatocyte [2],stable
same,stability in primary hepatocyte incubations,primary hepatocyte [3],stable
same,plasma metabolic profile,[4],only the parent drug
same,plasma metabolic profile,[5],only the parent drug
O=C1Nc2ccc(Cl)cc2[C@@](C#CC2CC2)(C(F)(F)F)O1 [Efavirenz],Percent Increase in Apparent Tipranavir,Anti-(H12)2,0%
CC(C)CN(C[C@@H](O)[C@H](Cc1ccccc1)NC(=O)O[C@H]1CCOC1)S(=O)(=O)c1ccc(N)cc1 [Amprenavir],Percent Increase in Apparent Tipranavir,Anti-(H12)2,0%
CC(C)(C)NC(=O)[C@@H]1CN(Cc2cccnc2)CCN1C[C@@H](O)C[C@@H](Cc1ccccc1)C(=O)N[C@H]1c2ccccc2C[C@H]1O [Indinavir],Percent Increase in Apparent Tipranavir,Anti-(H12)2,0%
CC(C)OC(=O)OCOP(=O)(CO[C@H](C)Cn1cnc2c(N)ncnc21)OCOC(=O)OC(C)C [Tenofovir disoproxil fumarate],administered dose recovered in urine,"[6]; multiple oral doses 300 mg once daily (under fed conditions), over 24 hours",32±10%
CC(C)c1nc(CN(C)C(=O)N[C@H](C(=O)N[C@@H](Cc2ccccc2)C[C@H](O)[C@H](Cc2ccccc2)NC(=O)OCc2cncs2)C(C)C)cs1 [Ritonavir],Percent Increase in Apparent Tipranavir,Anti-(H12)2,0%
Tenofovir,dose recovered in the urine as unchanged tenofovir,"[6]; IV administration, within 72 hours of dosing",70-80%
same,terminal elimination half-life,"[6]; single dose, oral administration of Tenofovir disoproxil fumarate",approximately 17 hours
same,substrate of CYP450 enzymes,CYP450 enzymes,neither tenofovir disoproxil nor tenofovir are substrates of CYP450 enzymes
Cc1cccc(C)c1OCC(=O)N[C@@H](Cc1ccccc1)[C@@H](O)C[C@H](Cc1ccccc1)NC(=O)[C@H](C(C)C)N1CCCNC1=O [Lopinavir],Percent Increase in Apparent Tipranavir,Anti-(H12)2,0%
2′-deoxy-3′-thiacytidine [Lamivudine],Percent Increase in Apparent Tipranavir,Anti-(H12)2,0%
same,absolute bioavailability,[7]; adults,approximately 82%
same,absolute bioavailability,[7]; children,~68%
same,time to maximum serum concentrations after the dose,[7]; oral administration,0.5 to 1.5 h
same,oral dose eliminated renally as unchanged drug,[7]; oral dose,approximately 70%
same,secretion into breast milk,[7]; postpartum women,secreted into breast milk
same,placental transfer,[7]; pregnant women,diffuses freely across the placenta
same,systemic exposure (AUC) when administered with food,[7]; with food,not altered
CC(C)OC(=O)OCOP(=O)(CO[C@H](C)Cn1cnc2c(N)ncnc21)OCOC(=O)OC(C)C [tenofovir disoproxil],substrate of CYP450 enzymes,CYP450 enzymes,neither tenofovir disoproxil nor tenofovir are substrates of CYP450 enzymes
CC(C)(C)NC(=O)[C@@H]1C[C@@H]2CCCC[C@@H]2CN1C[C@@H](O)[C@H](Cc1ccccc1)NC(=O)[C@H](CC(N)=O)NC(=O)c1ccc2ccccc2n1 [Saquinavir],Percent Increase in Apparent Tipranavir,Anti-(H12)2,0%
CC(Cn1cnc2c(N)ncnc21)OCP(=O)(O)OP(=O)(O)OP(=O)(O)O (stereo in doubt) [Tenofovir diphosphate],inhibition of DNA polymerase α,[8],weak inhibitor
same,inhibition of DNA polymerase β,[9],weak inhibitor
same,inhibition of mitochondrial DNA polymerase γ,[10],weak inhibitor
